# Key:
# [1] = system: Dextran Sulphate Sodium Induced Colitis Mouse Model; assay: Dextran sulphate sodium induced colitis mouse model, IL-6 and MIP-2 in colon tissue homogenates (ELISA); format: in vivo, C57BL/6 mice; conditions: 3.5% DSS in drinking water 5 days
# Excerpt: Two groups (n=24 each) of adult C57BL/6 mice (Jackson Laboratories, Bar Harbour, Me., USA), conventionally raised (CR) and bacteria-depleted (BD) mice, were used to induce colitis. All animals were housed within a 12-h light/dark cycle and had access to mouse chow and water ad libitum.
# At 6 weeks of age, conventionally colonised mice were housed under conventional conditions with untreated water (CR group) whilst mice in the BD group were fed an antibiotic cocktail in their drinking water for 2 weeks. Kanamycin (8 mg/ml), Gentamicin (0.7 mg/ml), Colistin (34,000 U/ml), Metronidazole (4.3 mg/ml) and Vanacomycin (0.9 mg/ml) comprised the antibiotic cocktail. Concentrations of antibiotics in the water were calculated based on the average water consumed by age group.
# At 8 weeks of age, intestinal colitis was induced by feeding 3.5% DSS (Dextran Sulphate Sodium) (MP Biomedicals, Aurora, Ohio, USA) in drinking water for 5 days in all mice of both groups (CR and BD). At 10 weeks of age, half the mice of each group started receiving Bimuno (5 g/L) for 7 days. At the end of week 10, the animals were euthanized and their colons were harvested for analysis.
# Murine IL-6 and MIP-2 cytokines were analysed by ELISA (Quantikine, R&D Systems, Minn., USA) on colon tissue homogenates according to manufacturer's instructions. Briefly, the proximal colons for each group were collected and homogenised with PBS homogenising buffer containing 1% Triton X-100 supplemented with a cocktail of protease inhibitors. The homogenised solutions were centrifuged at 12,000 rpm for 10 min, and the supernatants were separated into aliquots and stored at −70° C.
# NCM-460 cells [2] = assay: Effect of B-GOS on IL-8 and MIP-3α secretion in NCM-460 cells (ELISA); format: cell-based, human; conditions: TNF-α 10 ng/mL, vs untreated, p<0.001
# Procedure: (§1) Intestinal epithelial cells were grown to confluence in 24-well plates from an initial concentration of 5×10^5 cells/mL. When the cells reached 70% confluence, they were treated in quadruplicate as follows: (i) negative control, (ii) TNF-α (10 ng/mL) positive control, (iii) B-GOS (5 g/L) and (iv) TNF-α (10 ng/mL) with B-GOS (5 g/L). A concentration of 5 g/L of oligosaccharides was used since this is the physiological concentration of oligosaccharides found in human milk. After 16 hours, supernatants were collected and stored at −20° C. for IL-8 and MIP-3α secretion to be determined later by ELISA. In following experiments, TNF-α was replaced by IL1β or flagellin.
# (§2) Quantitation of IL-8. The IL-8 concentration was measured by ELISA as described previously (Claud E C, Savidge T, Walker W A 2003 Modulation of human intestinal epithelial cell IL-8 secretion by human milk factors. Pediatr Res 53:419-425). […] The reaction was stopped with 100 μL 2N H2SO4 and the absorbance was read at 490 nm. The concentration of IL-8 in the samples was calculated from the IL-8 standard curve.
# Quantitation of MIP-3α. The amount of MIP-3α secretion was measured by ELISA similar to IL-8, except that the plate was coated overnight with 100 μL 2.0 μg/mL mouse anti-human MIP-3α monoclonal antibody. […] The concentration of MIP-3α in the samples was calculated from the MIP-3α standard curve. […]
# NCM-460 cells [3] = assay: Effect of B-GOS on induction of cytokine transcription (qRT-PCR of IL-8, MIP-3α, MCP-1 mRNA); format: cell-based, human; conditions: TNF-α 10 ng/mL, 18 hours, p<0.001
# Procedure: Effect of B-GOS on induction of cytokine transcription. NCM-460 cells were grown to confluence in 6-well plates from an initial concentration of 5×10^5 cells/mL. When the cells reached 70% confluence, they were treated as follows in quadruplicate: (i) negative control, (ii) TNF-α or IL1β or flagellin (10 ng/mL) positive control, and (iii) TNF-α or IL1β or flagellin (10 ng/mL) with B-GOS (5 g/L). After 18 hours, total cellular RNA was isolated by Trizol-chloroform extraction. Using the SuperScript III Platinum SYBR Green One-Step qRT-PCR kit, the mRNA expression of IL-8, MIP-3α and MCP-1 was measured on a MJ Opticon 2 and standardized to mRNA expression of GAPDH.
# Statistical analysis. Induction of cytokines was standardized to the positive control with error bars representing standard error (SE). Comparisons between groups were performed using a two-tailed Student's t test. Gene expression data obtained by qRT-PCR was expressed as the mean with SE. Comparisons between groups were performed using a Student's two-tailed t test after logarithmic transformation. A p value <0.05 was considered statistically significant and indicated by an asterisk (*), a p value <0.01 was indicated by two asterisks (**) and a p value <0.001 was indicated by three asterisks (***).
# T84 cells = assay: Effect of B-GOS on TNF-α induced IL-8 secretion in T84 cells (ELISA); format: cell-based, human; conditions: TNF-α 10 ng/mL, vs untreated, p<0.001
# Procedure: as §1
# as §2, with “curve. […]” for “curve.”
# Statistical analysis. […] Gene expression data obtained by qRT-PCR was expressed as the mean with SE. […]
# NF-κB p65 protein = assay: Effect of B-GOS on NF-κB translocation (immunofluorescence); format: cell-based, human; conditions: NCM-460 cells, TNF-α 10 ng/mL alone, 30 minutes
# Procedure: Effect of B-GOS on NF-KB translocation. NCM-460 cells were grown to 70% confluency on cover slips and treated in duplicate for 10 or 30 minutes as follows: (i) negative control, (ii) TNF-α (10 ng/mL) positive control, and (iii) TNF-α (10 ng/mL) with B-GOS (5 g/L). The medium was removed and the cells were fixed in 4% paraformaldehyde. After permeabilization with methanol and blocking with 10% goat serum in 0.25% BSA in TBS, the cells were probed with rabbit anti-human NF-κB p65 polyclonal antibody. After washing, the cells were incubated with CyTM 3-conjugated goat anti-rabbit antibody. The cover slips were then washed and mounted on a glass slide to be visualized under the microscope (Nikon Eclipse TE2000-S).
Substance,"induction of IL-6 secretion by DSS ([1]; BD mice, p<0.0001) [fold]","induction of MIP-2 secretion by DSS ([1]; BD mice, p=0.0005) [fold]","induction of IL-6 secretion by DSS ([1]; conventional mice, p<0.0001) [fold]","induction of MIP-2 secretion by DSS ([1]; conventional mice, p<0.0001) [fold]",increase of IL-8 secretion upon TNF-α stimulation (NCM-460 cells [2]) [fold],increase of MIP-3α secretion upon TNF-α stimulation (NCM-460 cells [2]) [fold],increase of IL-8 mRNA expression upon TNF-α stimulation (NCM-460 cells [3]) [fold],increase of MIP-3α mRNA expression upon TNF-α stimulation (NCM-460 cells [3]) [fold],increase of IL-8 secretion upon TNF-α stimulation (T84 cells) [fold],nuclear translocation of NF-κB p65 upon TNF-α stimulation (NF-κB p65 protein)
Dextran Sulphate Sodium [DSS],6.2,27.2,2.2,8.3,–,–,–,–,–,–
TNF-α,–,–,–,–,58.8,25.0,12.2,99.4,4.9,clearly translocated into the nuclei
